Laboratory results published in patent US7071173B2, “Antiviral methods employing double esters of 2′, 3′-dideoxy-3′-fluoroguanosine” (Medivir AB, priority 1998, dated 2006).
Like-named read-outs stand apart in the source and are kept apart here.

Experiments:
[1] = rat, in vivo, po
Protocol: At 30, 60, 120, 240 & 360 minutes, 0.2 ml blood were collected, centrifuged and frozen for later analysis. […] Aliquots comprising 40–100 μl of each plasma sample are mixed with an equal volume of acetonitrile (10 seconds, Vibrofex). The sample is centrifuged (2 min, 14000 RPM) and 30 μl of the supernatant is injected into an HPLC system, as follows.

[2] = Rat pharmacokinetics: FLG in serum after oral prodrug, absolute oral bioavailability; details: in vivo
Text: (§1) Biomed. Anal. 13, 369–376.

[3] = Rat bioavailability of the indanolic ring hydroxy prodrug, mother compound in plasma by LC-MS; format: in vivo, rats
Protocol: Bioavailability of the ring indanolic ring hydroxy compound of Example B-1 was assessed in rats by the procedure of Biological Example 5 also using a propylene glycol vehicle, 58 mg/kg (0.047 mmol/kg), but wherein the mother compound N1, N6-di [(1S,2R)-2-hydroxy-2,3-dihydro-1-H-1-indenyl]-(2R, 3R, 5R)-2,5-di(benzyloxy)-3,4-dihydroxyhexanediamide was assayed by LC-MS using SiM (single ion monitoring) with M/Z ion detector 653. Plasma results are presented as μM in the table below: […]

[4] = FLG itself; **literature value; cited from earlier work
HIV-2SBL6669 = assay: XTT dye uptake assay utilising MT4 cells; format: cell-based; details: Human immunodeficiency virus 2, read-out: IC50, concentration of metabolite inducing 50% inhibition of viral replication
Text: (§2) In the XTT dye uptake assay of Koshida et al Antimicrob Agents Chemother.

HIV-1^29/9 = assay: XTT dye uptake assay utilising MT4 cells; format: cell-based; details: Human immunodeficiency virus 1, read-out: IC50, concentration of metabolite inducing 50% inhibition of viral replication
Text: as §2

HIV-1^2441 AZT^r = assay: XTT dye uptake assay utilising MT4 cells; format: cell-based; details: Human immunodeficiency virus 1, MT4, read-out: IC50, concentration of metabolite inducing 50% inhibition of viral replication
Text: as §2

[5] = Bioavailability of FLG as detected by the present inventors; details: in vivo; FLG itself
Text: International patent application no. […] The former compound FLG is very active in vitro however the present inventors have detected that its bioavailability is so poor-around 4%-that the in vivo utility of the compound has thus far been limited to intraperitoneally or subcutaneously administered animal models.

SIVSM = assay: XTT dye uptake assay utilising MT4 cells; format: cell-based, SIV; details: Simian immunodeficiency virus, read-out: IC50, concentration of metabolite inducing 50% inhibition of viral replication
Text: as §2

[6] = Protein binding in serum samples; format: in vitro ADME
Text: as §1

HIV-1111B TIBO^r = assay: XTT dye uptake assay utilising MT4 cells; format: cell-based, HIV-1; details: Human immunodeficiency virus 1, MT4, read-out: IC50, concentration of metabolite inducing 50% inhibition of viral replication
Text: as §2

HIV-1111B = assay: XTT dye uptake assay utilising MT4 cells; format: cell-based, HIV-1; details: Human immunodeficiency virus 1, MT4, read-out: IC50, concentration of metabolite inducing 50% inhibition of viral replication
Text: as §2

[7] = test system: duck hepatitis B virus (DHBV); assay: DHBV model in ducks, serum DHBV DNA by dot blot-hybridisation; format: in vivo
Text: The activity of antivirals on duck hepatitis B virus (DHBV) in ducks is an acknowledged animal model for the validation of in vivo hepatitis B activity in humans. […] The results are depicted in FIGS. […] The ducks were two days old when inoculated with DHBV and 18 days old when treatment was commenced. The metabolite and PBS (controls) were given intraperitoneally for 10 days as twice daily injections, at 8 am and 4 pm. Treatment lasted 33 days and the animals were followed 5 weeks after the end of treatment.
The efficacy of treatment was followed by dot blot-hybridisation of DHBV DNA in serum using a radioactive probe and the amount of DHBV measured as the amount of radioactivity hybridised. FIG. 1 plots the amount of DHBV DNA in serum at different timepoints before, during and after treatment.

[8] = Weight gain of treated DHBV-infected ducks (toxicity); format: in vivo
Text: The activity of antivirals on duck hepatitis B virus (DHBV) in ducks is an acknowledged animal model for the validation of in vivo hepatitis B activity in humans. […] The ducks were two days old when inoculated with DHBV and 18 days old when treatment was commenced. […] Treatment lasted 33 days and the animals were followed 5 weeks after the end of treatment.

CCC(=O)c1ccc(F)c([C@@H]2C[C@@H]2NC(=O)Nc2ccc(C#N)cn2)c1OCOC(=O)[C@@H](N)[C@@H](C)CC (relative stereo) [Example P-1, (1S. 2S)-N-{cis-2-[6-fluoro-2-(L-isoleucyloxymethyloxy)-3-propionylphenyl]cyclopropyl}-N′-[2-(5-cyanopyridyl)]urea]
Bioavailability0–6 hours [1]: 34%

CCCCCCCCCCCCCCCCCC(=O)OC(COC(=O)[C@@H](N)C(C)C)C(=O)OC[C@H]1O[C@@H](n2cnc3c(=O)[nH]c(N)nc32)C[C@@H]1F (some centres unmarked) [Example 25]
6 h absolute bioavail. % [2]: 81.5%

CCCCCCCCCCCCCCCCCC(=O)OCC(COC(=O)[C@@H](N)C(C)C)CC(=O)OC[C@H]1O[C@@H](n2cnc3c(=O)[nH]c(N)nc32)C[C@@H]1F (some centres unmarked) [Example 13]
6 h absolute bioavail. % [2]: 37%

CCCCCCCCCCCCCCCCCC(=O)OCC(CCCC(=O)OC[C@H]1O[C@@H](n2cnc3c(=O)[nH]c(N)nc32)C[C@@H]1F)COC(=O)[C@@H](N)C(C)C (stereo partly drawn) [Example 12, 2′ 3′-dideoxy-3′-fluoro-5′-O-[5-(L-valyloxymethyl)-6-stearoyloxyhexanoyl]guanosine]
6 h absolute bioavail. % [2]: 29%

CC(C)[C@H](N)C(=O)OCC(COC(=O)[C@@H](N)C(C)C)OC(=O)CCC(=O)OC[C@H]1O[C@@H](n2cnc3c(=O)[nH]c(N)nc32)C[C@@H]1F [Example 29, 2′, 3′-Dideoxy-3′-fluoro-5′-O-3-[1,3-bis-(L-valyloxy]-2-propyloxycarbonylpropanoyl]guanosine]
6 h absolute bioavail. % [2]: 51%

O=C(N[C@H]1c2ccccc2C[C@H]1O)[C@H](OCc1ccccc1)C(O)[C@@H](O)[C@@H](OCc1ccccc1)C(=O)N[C@H]1c2ccccc2C[C@H]1O (stereo partly drawn) [mother compound, N1, N6-di [(1S,2R)-2-hydroxy-2,3-dihydro-1-H-1-indenyl]-(2R, 3R, 5R)-2,5-di(benzyloxy)-3,4-dihydroxyhexanediamide]
bioavailability ([3]; rat, in vivo): below level of detection

CC(C)[C@H](N)C(=O)OCC(COC(=O)[C@@H](N)C(C)C)CC(=O)OC[C@H]1O[C@@H](n2cnc3c(=O)[nH]c(N)nc32)C[C@@H]1F [Example 26, 2′, 3′-Dideoxy-3′-fluoro-5′-O-[3,3-bis(L-valyloxymethyl)-propionic acid] guanosine]
12 h absolute bioavail. % [2]: 67.5%

Nc1nc2c(ncn2[C@H]2C[C@H](F)[C@@H](CO)O2)c(=O)[nH]1 [FLG, 2′,3′-dideoxy, 3′-fluoroguanosine]
12 h absolute bioavail. % [4]: 9%** | IC50 (HIV-2SBL6669): 2 µg/mL | IC50 (HIV-1^29/9): 0.7 µg/mL | IC50 (HIV-1^2441 AZT^r): 1 µg/mL | bioavailability [5]: ~4% | IC50 (SIVSM): 1 µg/mL | protein binding [6]: neglible | IC50 (HIV-1111B TIBO^r): 1 µg/mL | IC50 (HIV-1111B): 1 µg/mL | inhibition of DHBV in vivo ([7]; 0.3 mg/kg/day): considerable inhibition of DHBV in vivo | amount of DHBV DNA in serum during treatment ([7]; 5 mg/kg/day intraperitoneally, twice daily injections): dramatic decrease in the amount of DHBV in serum during the first 10 days of treatment, whereupon for the remainder of treatment the level of DHBV DNA was below the detection limit | DHBV in serum after the finish of treatment ([7]; after the finish of treatment, followed 5 weeks): virus reappeared in the serum | serum DHBV DNA during treatment ([7]; repeat experiments at 30 and 3 mg/kg/day and with congenitally infected ducks): dramatic fall in serum DHBV DNA to under the detection threshold | weight of the ducks during treatment ([8]; 5 mg/kg/day, compared with PBS treated controls): increased in the same way as in the control | toxicity judged from growth rate ([8]; ducks, treatment period): clearly non-toxic

CC(C)C(N)C(=O)OC1Cc2ccccc2C1NC(=O)[C@H](OCc1ccccc1)C(O)C(O)[C@@H](OCc1ccccc1)C(=O)N[C@H]1c2ccccc2CC1OC(=O)C(N)C(C)C (some centres unmarked)
bioavailability ([3]; rats, same assay, comparator dosed itself): below the level of detection
